Data reported in EP0983764A1, “PREVENTIVES FOR ISCHEMIC HEART DISEASES” (TAISHO PHARMACEUTICAL CO. LTD, priority 1997, dated 1998).
Where two headings read alike, the source gives them in different places. Marks after values point to notes of the source that are not given here.

Key:
[1] = test system: high fat-loading hamsters; test: Antiarteriosclerotic activity in a model for the treatment of arteriosclerosis in high fat-loading hamsters; assay type: in vivo, male golden hamsters; conditions: for Degree of lipid deposition on the arterial wall: 10 weeks, aortic arch, Oil Red O; for Degree of lipid deposition on the arterial wall / Total blood cholesterol: Means ± S.E. (n=5); for Total blood cholesterol: in high fat diet for 10 weeks
Text: As test animals were used a group of 5 male golden hamsters of 6 weeks (available from Nihon SLC K.K.) Hamsters were fed with the following high fat diet for 10 weeks to prepare a model for arteriosclerosis.
During this period, the compound of the invention was continuously administered to a medicated group, simultaneously with feeding.
After blood collection, the aortic arch was excised and the adventitia was completely stripped off under microscopic observation. The tissue after fixed with 10% neutral buffered formalin was fat-stained with an Oil Red O solution and enclosed in a glycerol-gelatin solution on a slide glass to prepare a tissue preparation.
An area of the fat-stained site (µm^2) and an area of the artery (mm^2) were measured by means of an image analysis system (Adobe Photoshop, Unitimage for the Apple Macintosh) and a ratio of both values was calculated to determine a degree of lipid deposition on the arterial wall.
(§1) A total blood cholesterol level was measured according to an enzyme method (Autosera CHO-2, Daiichi Kagaku Yakuhin K.K.) using an autoanalyzer (Hitachi 7150 type).
The drug was given in admixture with a high fat diet at the concentrations of 0.003% and of 0.03%, and a dose was calculated from the amount of feed ingested and the body weight.
Composition of a high fat diet: A feed for rats MF (available from Oriental Kobo K.K.) to which 10% coconut oil and 0.05% cholesterol were supplemented. (Results)

[2] = test system: cholesterol-loading rabbits; test: Antiarteriosclerotic activity in a model for the treatment of arteriosclerosis in cholesterol-loading rabbits; assay type: in vivo, rabbits (NZW strain male); conditions: for inhibition at 3 mg/kg: Oryctolagus cuniculus
Description: As test animals were used a group of 10 rabbits previously fed with a 1% cholesterol-enriched feed to develop atherosclerosis (of 5 months, NZW strain male; available from Kitayama RABES K.K.)
A group of rabbits with arteriosclerosis were fed with a normal feed for rabbits RC-4 (available from Oriental Kobo K-K.) for 3 months and then adopted as a control group, while the compound of the invention was orally administered to a medicated group at 3 mg/kg once per day during this period.
After blood collection, the common carotid artery and the aorta were excised and a certain site thereof was fixed with 10% neutral buffered formalin to prepare a slice of the arterial tissue. Elastin elastic fiber-stained preparations were prepared by Elastic Van Gieson (EVG) staining, fat-stained preparations were prepared by Oil Red O staining and smooth muscle-stained preparations were prepared by anti-human α-actin antibody 1A4 staining.
A degree of intimal elastin fibrogenesis and a degree of medium lipid deposition were assessed in terms of 5 scores on elastin-positve and lipid staining-positive intensities (Grade; 0: No changes, 1: Minimum, 2: Mild, 3: Moderate, and 4: Severe). Areas of the intima (I) and of the medium (M) were measured by means of an image analysis system (Adobe Photoshop, Unitimage for the Apple Macintosh) and a ratio of both values (I/M) was calculated.
An elastin density of the fibrous cap in the intimal surface was calculated in terms of a ratio of the elastin-positive area to a given area of the intimal surface. A ratio of the α-actin-positive area to the intimal surface area at a similar site was defined as a smooth muscle density. Cholesterol was extracted from a portion of the excised aorta with a solution of chloroform : methanol (2:1) and was assayed according to an enzyme method (Cholesterol CII-Test WAKO, Free Cholesterol C-TEST WAKO, Wako Pure Chemical Industries, Ltd.)
as §1

[3] = test system: hereditary hyperlipemic WHHL rabbits; test: Antiarteriosclerotic activity in hereditary hyperlipemic WHHL rabbits; assay type: in vivo; conditions: for Total cholesterol in the arterial wall: 18 months, aorta; for Total cholesterol in the arterial wall / Total blood cholesterol / Intimal cholesterol deposition / Intimal surface elastin/collagen / Intimal collagen / Intimal elastin / Medium Elastin: Mean ± S.E.; for Total blood cholesterol: in feed over 18 months, at autopsy; for Intimal cholesterol deposition: plaque components in aortic arteriosclerosis; for Intimal cholesterol deposition / Intimal collagen / Intimal elastin / Medium Elastin: score, Grade 0-4; for Intimal surface elastin/collagen: ratio
Text: The compound of the invention was continuously administered to rabbits of 2 months with hereditary hyperlipemia (WHHL rabbits, available from Kitayama RABES K.K.) over 18 months and then the rabbits were autopsied.
A portion of the aorta was fixed with 10% neutral buffered formalin and then embedded in paraffin or freeze-embedded to prepare a slice of the arterial tissue. The slice was stained with Hematoxylin and Eosin (HE), Elastic Van Gieson (EVG), Azan-Mallory, and Oil Red O. A positive rate was assessed under microscopic observation in terms of 5 scores (Grade; 0: No changes, 1: Minimum, 2: Mild, 3: Moderate, and 4: Severe) to measure changes in components in the arteriosclerotic lesion. For another portion of the aorta, cholesterol was extracted with a solution of chloroform methanol (2:1) and a total cholesterol level in the arterial wall was assayed according to an enzyme method (Cholesterol CII-Test WAKO, Wako Pure Chemical Industries, Ltd.)
A total blood cholesterol level value at the autopsy was measured according to an enzyme method (Autosera CHO-2, Daiichi Kagaku Yakuhin K.K.) using an autoanalyzer (Hitachi 7150 type).
The drug was mixed into a feed for rabbits RC-4 (Oriental Kobo K.K.) at the concentrations of 0.005% and of 0.05%, and the resulting feed was given daily between 9:00 a.m. and 11:30 a.m. while the feed was restricted to 20 g/kg of body weight.

[4] = 3 mg/kg orally once per day, 3 months, aorta
[5] = 3 mg/kg, score, Grade 0: No change to 4: Severe, Mean ± S.E.

With `CCCCCCCCCCCCCCSCC(=O)Nc1c(C(C)C)cccc1C(C)C` [Compound of the invention] the “Degree of lipid deposition on the arterial wall” value ([1]; 1.5 mg/kg) was 217.5±40.5* µm^2/mm^2, the Total blood cholesterol ([1]; 1.5 mg/kg) was 372.0 ± 35.5 mg/dL and the “Degree of lipid deposition on the arterial wall” value ([1]; 15 mg/kg) was 46.2± 8.6** µm^2/mm^2. For the same compound, the Total blood cholesterol ([1]; 15 mg/kg) was 231.2 ± 4.9 mg/dL, the inhibition at 1.5 mg/kg ([1]; Mesocricetus auratus, 1.5 mg/kg, vs. control group, read-out: Degree of lipid deposition on the arterial wall Inhibition (%)) was 67.3% and the inhibition at 15 mg/kg ([1]; Mesocricetus auratus, 15 mg/kg, vs. control group, read-out: Degree of lipid deposition on the arterial wall Inhibition (%)) was 93.1%. For the same compound, the Total blood cholesterol ([2]; 3 mg/kg orally once per day, 3 months) was 113.4 ± 38.6 mg/dL, the “Degree of intimal thickening in the common carotid artery” value ([2]; 3 mg/kg orally once per day, 3 months, I/M = Area of the intima/Area of the medium) was 0.45±0.18 I/M and the “Cholesteryl ester in the arterial wall” value [2, 4] was 219.1 ± 18.4 mg/g. The “Free cholesterol in the arterial wall” value [2, 4] was 119.1 ± 12.2 mg/g, the “Total cholesterol in the arterial wall” value [2, 4] was 338.2 ± 29.9 mg/g and the “Elastin density in the intimal surface” value ([2]; 3 mg/kg, ratio of elastin-positive area to a given area of the intimal surface) was 151±30. The “Density of smooth muscle in the intimal surface” value ([2]; 3 mg/kg, ratio of α-actin-positive area to the intimal surface area) was 614±35, the “Degree of intimal elastin fibrogenesis” value [2, 5] was 1.7±0.2 and the “Degree of medium lipid deposition” value [2, 5] was 1.2±0.1. The “Degree of intimal elastin fibrogenesis Acceleration (%)” value ([2]; 3 mg/kg, vs. control group) was 112.5%, the “Density of smooth muscle in the intimal surface Acceleration (%)” value ([2]; 3 mg/kg, vs. control group) was 18.5% and the “Elastin density in the intimal surface Acceleration (%)” value ([2]; 3 mg/kg, vs. control group) was 37.0%. The inhibition at 3 mg/kg ([2]; 3 mg/kg, vs. control group, read-out: Cholesteryl ester in the arterial wall Inhibition (%)) was 24.1%, the inhibition at 3 mg/kg ([2]; 3 mg/kg, vs. control group, read-out: Degree of intimal thickening in the common carotid artery Inhibition (%)) was 55.9% and the inhibition at 3 mg/kg ([2]; 3 mg/kg, vs. control group, read-out: Degree of medium lipid deposition Inhibition (%)) was 47.8%. The “regressing a degree of intimal thickening” value ([2]; aortic arch, phase of the complete plaque) was “no action of regressing a degree of intimal thickening”, the “Total cholesterol in the arterial wall” value ([3]; 1 mg/kg) was 29.3 ± 4.8 mg/g and the Total blood cholesterol ([3]; 1 mg/kg) was 462 ± 13 mg/dL. It also gave an Intimal cholesterol deposition ([3]; 1 mg/kg) of 2.6±0.2, an Intimal surface elastin/collagen ([3]; 1 mg/kg) of 1.26±0.24 and an Intimal collagen ([3]; 1 mg/kg) of 3.0±0.2. The Intimal elastin ([3]; 1 mg/kg) was 1.5±0.2, the “Medium Elastin” value ([3]; 1 mg/kg) was 0.93±0.20 and the “Total cholesterol in the arterial wall” value ([3]; 10 mg/kg) was 32.2 ± 2.6 mg/g. It also gave a Total blood cholesterol ([3]; 10 mg/kg) of 438 ± 20 mg/dL, an Intimal cholesterol deposition ([3]; 10 mg/kg) of 2.2±0.1 and an Intimal surface elastin/collagen ([3]; 10 mg/kg) of 2.01±0.36. For the same compound, the Intimal collagen ([3]; 10 mg/kg) was 3.0±0.1, the Intimal elastin ([3]; 10 mg/kg) was 1.8±0.2 and the “Medium Elastin” value ([3]; 10 mg/kg) was 1.59±0.09. For the same compound, the inhibition at 1 mg/kg ([3]; Oryctolagus cuniculus, 1 mg/kg, vs. control group, read-out: Total cholesterol in the arterial wall Inhibition (%)) was 26.4%, the inhibition at 10 mg/kg ([3]; Oryctolagus cuniculus, 10 mg/kg, vs. control group, read-out: Total cholesterol in the arterial wall Inhibition (%)) was 19.1% and the “action on endothelial cells” value ([3]; old WHHL rabbit lesion) was “compacting endothelial cells”.
